Patent publication US20070299114A1, “Biaryl Derivatives” (Shionogi & Co., Ltd., priority 2004, published 2007)

Key:
[1] = system: Human lymphocyte; experiment: suppression of IgE antibody production in human lymphocyte stimulated with anti-human CD40 antibody and IL-4; format: cell-based; conditions: 216 h; IgE antibody production by human lymphocyte, anti-human CD40 antibody + IL-4, cultured for 9 days, ELISA
Procedure: Effect of Suppressing Antibody Production Using Human Lymphocyte
1) Human Peripheral Blood
Human peripheral blood was collected with a plastic syringe containing heparin (final concentration 1.5%) from a vein of an adult healthy person, and subjected to collection of lymphocyte immediately after blood collection.
To the RPMI medium (Sigma) were added 10% of fetal bovine serum, (HyClone Lab.) which had been immobilized at 56° C. for 30 minutes, penicillin (100 units/ml) and streptomycin (100 μg/ml) (Invitrogen), which was used.
The present compound was dissolved in dimethyl sulfoxide (Nakalai Tesque) to 2 mg/ml and, thereafter, the solution was diluted with a medium to a final concentration of 0.01 pg/ml to 10 μg/ml.
Human peripheral blood was mixed with an equal amount of PBS-10 mM EDTA, 10 ml of this was overlaid on a tube containing 3 ml of Ficoll-Paque Plus (Pharmacia Biotech), followed by centrifugation at room temperature and 300×g for 30 minutes to obtain a lymphocyte layer. The collected cell suspension was centrifugation-washed with a sterilized Hanks's balanced salt solution (Invitrogen), passed through a nylon mesh, and centrifugation-washed with a medium, which was used in an experiment as human lymphocyte.
5) Inducement of IgE Antibody Production Due to B cell Stimulation
Human lymphocyte was seeded on a 96-well culturing plate (Sumitomo Bakelite) to 2×10^5 cells per well, and the compound, an anti-human CD40 antibody (Pharmingen, 2 μg/ml), and human recombinant interleukin-4 (IL-4) (PEPROTECH, 0.1 μg/ml) were added, followed by culturing at 37° C. under the presence of 5% CO2 (0.2 ml/well). After cultured for 9 days, an amount of an antibody produced in the supernatant was quantitated by a specific ELISA method.
6) Quantitation of IgE Antibody
For quantitating IgE, a commercially available kit, MESACUP IgE Test (Medical & Biological Laboratories Co., Ltd.) was used. An experimental method was according to the manual, an experiment was performed duplicately, and an average was obtained.

[2] = system: anti-OVA IgE antibody; experiment: suppression of IgE antibody production to anti-ovalbumin (OVA) in immunized mice, PCA titer; format: in vivo; conditions: anti-OVA IgE antibody value (PCA titer, Log2 of maximum serum dilution rate) in BALB/c mice
Procedure: Effect of Suppression of IgE Antibody Production to Anti-Ovalbumin (OVA)
BALB/c mice (female, 8 to 10 week old) purchased from Japan Charles River (Kanagawa) and Wistar rats (female, 8 to 10 week old) purchased from Japan SLC (Sizuoka) were used.
BALB/c mice were immunized by intraperitoneally injecting 0.2 ml of a solution obtained by suspending 2 μg of ovalbumin (OVA) and an aluminum hydroxide gel (1 mg) in a brine. After ten days, blood was taken from a heart, the serum was separated, and an IgE antibody value was measured.
[…] Administration was performed from immunization date to the day before blood collection for consecutive 10 days.
4) Measurement of Anti-OVA IgE Antibody Value (PCA Titer)
The resulting mouse serum was prepared into a 2-fold dilution series with a brine, and each 50 μl of this was subcutaneously injected into a back of a pre-shaved Wistar rat. After 24 hours, 0.5 ml of a brine containing 1 mg of OVA and 5 mg of an Evans Blue dye was intravenously injected to induce a passive skin anaphylactic reaction (PCA).

[3] = molecular target: T1, dihydrooroate dehydrogenase (Homo sapiens, UniProt Q02127); experiment: dihydroorotate dehydrogenase inhibition, U-937 mitochondrial/microsomal fraction, DCIP absorbance at 620 nm; format: biochemical; conditions: DHODH of human U-937 cell mitochondrial/microsomal fraction; 37° C., 120 minutes
T1 construct: ultracentrifugation at 4° C. and 120,000×g for 60 minutes afforded a mitochondrial/microsomal fraction; endogenous in cells; host or cells: U-937 (human histiocytic lymphoma cell line), mitochondrial/microsomal fraction
T1 sequence (Q02127 whole entry): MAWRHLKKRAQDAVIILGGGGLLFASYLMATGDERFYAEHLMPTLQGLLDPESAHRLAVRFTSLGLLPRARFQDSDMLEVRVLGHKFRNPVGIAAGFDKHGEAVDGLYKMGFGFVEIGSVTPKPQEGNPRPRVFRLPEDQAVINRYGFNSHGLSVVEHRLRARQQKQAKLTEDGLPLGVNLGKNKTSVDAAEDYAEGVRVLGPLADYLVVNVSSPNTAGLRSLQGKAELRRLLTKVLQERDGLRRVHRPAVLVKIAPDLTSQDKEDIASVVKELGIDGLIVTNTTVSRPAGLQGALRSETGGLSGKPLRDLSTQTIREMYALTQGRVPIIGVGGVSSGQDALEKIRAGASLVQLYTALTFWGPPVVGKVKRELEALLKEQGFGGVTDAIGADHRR
Procedure: Method of Testing dihydrooroate dehydrogenase Inhibition
Human U-937 cell (human histiocytic lymphoma cell line) was sonicated in a homogenizing buffer (20 mM Tris-HC1, pH 7.4, containing 2 mM EDTA and protease inhibitor cocktail), and this was centrifuged at 4° C. and 1,200×g for 15 minutes to remove cell debris. Further, ultracentrifugation at 4° C. and 120,000×g for 60 minutes afforded a mitochondrial/microsomal fraction. The resulting fraction was quantitated for a protein, and prepared to 10 mg/ml, which was freezing-stored in a −40° C. in a refrigerator until measurement. To 150 μl of the reaction solution (50 mM Tris-HC1, pH 7.4, containing 0.1% Triton X-100, 1 mM KCN, 100 μM coenzyme Q10, 200 μM DCIP), were added 10 μl of a dilution series of the compound and 0.2 mg of a mitochondrial/microsomal fraction, followed by pre-incubation at 37° C. for 30 minutes. Then, 20 μl of a 5 mM DHO solution (final concentration […]), which is a substrate, was added, this was incubated at 37° C. for 120 minutes, and an absorbance at a measurement wavelength of 620 nm was measured. A rate of suppression of a compound at each concentration relative to a change in an absorbance due to the enzyme reaction was obtained, and a concentration indicating 50% inhibition (IC50 value) was calculated to assess the inhibition activity of the compound.

[4] = dose 10 mg/kg orally for consecutive 10 days
[5] = dose 40 mg/kg orally for consecutive 10 days

For `C/C(=C\c1ccc(-c2ccc3[nH]ccc3c2)cc1)C(=O)NC1CCCC1` [Compound 4], the melting point was 154 to 157 °C.
With `COc1cc(-c2ccc(NC(C)C)cc2F)c(OC)cc1/C=C(\C)C(=O)O` [Compound 22] the melting point was 213 to 216 °C.
In the case of `C/C(=C\c1cc(F)c(-c2ccc(NC(C)C)cc2)cc1F)C(=O)NCC(=O)O` [Compound 21], the melting point is reported as 156 to 158 °C.
Molecule `C/C(=C\c1ccc(-c2ccc3[nH]ccc3c2)cc1)C(=O)O` [Compound 1] has a melting point of 195 to 198 °C.
With `C/C(=C\c1cc(C)c(-c2ccc(NC(C)C)cc2F)cc1C)C(=O)NC(C)C` [Compound 122] the IC50 [1] was 0.5 ng/mL, the PCA [2, 4] was 4.7 and the IC50 [3] was 10.5 nM.
Work on `COc1c(C)c(-c2ccc(NC3CCCCC3)cc2)c(OC)c(C)c1/C=C(\C)C(=O)O` [Compound 559] yielded an IC50 [1] of 7.2 ng/mL and a PCA [2, 4] of 4.
For `Cc1cc(-c2ccc(NC3CCCC3)cc2)c(C)cc1/C=C(\F)C(=O)NC(C)C` [Compound 397], the IC50 [1] was 0.3 ng/mL, the PCA ([2]; dose 20 mg/kg orally for consecutive 10 days) was 0< and the IC50 [3] was 6.84 nM.
In the case of `Cc1cc(-c2ccc(NC(C)C)cc2F)c(C)cc1/C=C(/F)C(=O)NC(C)C` [Compound 201], the IC50 [1] is reported as 0.6 ng/mL, the PCA [2, 4] is reported as 5.3 and the IC50 [3] is reported as 5.17 nM.
In the case of `COc1c(C)c(-c2ccc(NC(C)C)cc2)c(OC)c(C)c1/C=C(\C)C(=O)O` [Compound 526], the IC50 [1] is reported as 0.9 ng/mL and the PCA [2, 5] is reported as 2.7.
Work on `CCS(=O)(=O)NC(=O)/C(C)=C/c1cc(C)c(-c2ccc(NCc3ccco3)cc2F)cc1C` [Compound 347] yielded an IC50 [1] of 60 ng/mL, a PCA [2, 5] of 2.0 and an IC50 [3] of 6.16 nM.
For `CC/C(=C\c1c(C)c(F)c(-c2ccc(NC(C)C)cc2)c(C)c1F)C(=O)N[C@H](C)C(=O)O` [Compound 495], the IC50 [1] was 41 ng/mL and the PCA [2, 4] was 4.7.
With `Cc1cc(-c2ccc(NC3CCCC3)cc2)c(C)cc1/C=C(\F)C(=O)NCCC(=O)O` [Compound 408] the IC50 [1] was 8 ng/mL and the PCA [2, 5] was 0<.
In the case of `CC/C(=C\c1c(C)c(F)c(-c2ccc(NC(C)C)cc2)c(C)c1F)C(=O)O` [Compound 493], the IC50 [1] is reported as 9.4 ng/mL and the PCA [2, 4] is reported as 4.0.
Work on `C/C(=C\c1cc(C)c(-c2ccc(NC(C)C)cc2)cc1C)C(=O)NC1CCCCC1` [Compound 80] yielded an IC50 [1] of 4.6 ng/mL and a PCA [2, 4] of 5.3.
For `C/C(=C\c1c(C)c(F)c(-c2ccc(NC(C)C)nc2)c(C)c1F)C(=O)NC(C)C` [Compound 484], the IC50 [1] was 9.3 ng/mL and the PCA [2, 5] was 0<.
Work on `C/C(=C\c1c(C)c(C)c(-c2ccc(NC3CCCC3)cc2F)c(C)c1C)C(=O)NC1CCCC1` [Compound 459] yielded an IC50 [1] of 0.8 ng/mL and a PCA [2, 4] of 2.7.
In the case of `C/C(=C\c1c(C)c(C)c(-c2ccc(NC(C)C)cc2F)c(C)c1C)C(=O)N[C@H](C)C(=O)O` [Compound 420], the IC50 [1] is reported as 39 ng/mL and the PCA [2, 5] is reported as 0<.
With `CCC/C=C/CNc1ccc(-c2c(C)c(OC)c(/C=C(\C)C(=O)O)c(C)c2OC)cc1` [Compound 573] the IC50 [1] was 6.6 ng/mL and the PCA [2, 4] was 0<.
For `C/C(=C\C(=O)NC(C)C)c1cc(C)c(-c2ccc3[nH]ccc3c2)cc1C` [Compound 252], the IC50 [1] was 75 ng/mL, the PCA [2, 5] was 0< and the IC50 [3] was 13.6 nM.
For `COc1cc(-c2ccc(NC(C)C)cc2F)c(OC)cc1/C(C)=C/C(=O)NC(C)C` [Compound 40], the IC50 [1] was 3.7 ng/mL and the PCA [2, 5] was 1.3.
